Legend:
[1] = biological target: T1, erbB2-autophosphorylation (p-erbB2) (Homo sapiens, UniProt P04626); test: Tumor p-erbB2 reduction (PD) by ELISA in BT-474 tumor-bearing mice; assay type: in vivo; conditions: 0.5 hr after dosing on day 28
T1 construct: endogenous in cells; host or cells: BT-474 human breast adenocarcinoma cells grown as subcutaneous xenografts in female athymic mice
Procedure: (§1) Whole blood samples (˜50 μl) were collected at 0.5, 1, 2, 4 & 8 h post-dose on day 28 for PK analysis as described below. Tumors were isolated 0.5 h post-dose on day 28 for PD analysis by ELISA.
The p-erbB2 levels, i.e., the level of the phosphorylated form of erbB2, were also determined in tumor samples of all groups at 0.5 hr post-dosing on day 28 (Table 5).

[2] = tested on: BT-474 human breast adenocarcinoma; test: BT-474 xenograft tumor growth inhibition in athymic female mice; assay type: in vivo
Procedure: The activity of the compounds of formula 1, in vivo, can be determined by the amount of inhibition of tumor growth by a test compound relative to a control. The tumor growth inhibitory effects of various compounds are measured according to the method of Corbett T. H., et al., “Tumor Induction Relationships in Development of Transplantable Cancers of the Colon in Mice for Chemotherapy Assays, with a Note on Carcinogen Structure”, Cancer Res., 35, 2434-2439 (1975) and Corbett T. H., et al., “A Mouse Colon-tumor Model for Experimental Therapy”, Cancer Chemother. Rep. (Part 2)”, 5, 169-186 (1975), with slight modifications. Tumors are induced in the left flank by subcutaneous (sc) injection of 5 million log phase cultured tumor cells (BT-474 human breast adenocarcinoma) suspended in Matrigel (1:1 in PBS). […] Rep., 3, 1-104 (1972). Results are expressed as percent inhibition, according to the formula: Inhibition (%)=(TuWcontrol−TuWtest)/TuWcontrol×100%. The flank site of tumor implantation provides reproducible dose/response effects for a variety of chemotherapeutic agents, and the method of measurement (tumor diameter) is a reliable method for assessing tumor growth rates.
Statistical Analysis: The statistical analysis of tumor growth was done using SAS Version 8, PROC GLM by Non-clinical statistical group.

[3] = Whole blood pharmacokinetics of agent 182 in BT-474 tumor-bearing mice (LC-MS/MS); assay type: in vivo; conditions: for Cmax: mouse; for Cave0-2 h of Agent 182: day 28
Procedure: as §1
Blood Sample Analysis: Aliquots (100 μL) of whole blood were diluted with 100 μL acetonitrile (25%) containing an internal standard (CP-702,453, 0.5 μg/ml). Samples were extracted with methyl-tert-butyl ether (MTBE) and 0.1M sodium hydroxide by liquid-liquid extraction using a 96-well technology. After brief vortexing, samples were centrifuged (3000 rpm for 10 min) and the supernatant was transferred into a 96-well plate and evaporated to dryness at 40° C. under a slow stream of nitrogen gas. The residue was reconstituted with 200 μL of 25% acetonitrile and vortexed for approximately 2 min.
The mobile phase was delivered as 90% 10 mM ammonium acetate with 0.1% formic acid and 10% acetonitrile for the first 1 min followed by a linear gradient from 10% to 90% acetonitrile over 1 min. Then the mobile phase was delivered isocratically at 90% acetonitrile for 1 min before a subsequent gradient back to 10% acetonitrile over 0.1 min. The column was then allowed to re-equilibrate at 90% 10 mM ammonium acetate with 0.1% formic acid and 10% acetonitrile for 1.0 min before the next sample injection.
Data collection and integration were accomplished using Analyst (version 1.2). The ratio of peak area responses of drug relative to internal standard was used to construct a standard curve using a linear least squares regression with a 1/x weighting. The dynamic range of the assay was 1.0 to 1000 ng/mL. The performance of the assay was monitored by inclusion of quality control samples prepared in mouse whole blood from a separate weighing. Further details are located in notebook #62874.
PK Data Calculation: Pharmacokinetic parameters were determined by the noncompartmental methods using WinNonLin™, version 3.2. The maximum whole blood concentration (Cmax) and the time at which this concentration was achieved (Tmax) were directly taken from the raw data. Area under the whole blood concentration versus time curve (AUC) was calculated using linear trapezoidal approximation. For estimation of the means and pharmacokinetic parameters, concentrations at the 0 hr and those <LLOQ (1 ng/mL) were assumed to be 0 ng/mL. The means were calculated only if more than 50% of the data exceeded LLOQ of the assay.

[4] = Body weight and tolerability in BT-474 tumor-bearing mice
Procedure: Cells were inoculated SC (5 million cells/animal) into female athymic mice. […] The tumor measurements and body weight changes were obtained on days 1, 5, 8, 12, 15, 19, 22, 26 and 28. Tumor volume was calculated by the following formula: Tumor volume (mm^3)=(W×W)/2×L (L=length & W=width).
• Values given represent the average tumor volume (mm^3) ±SE; Values in parenthesis are the average body weight (g). • % Growth Inhibition=[Tumor volume on day 28 of treated group (mm^3)×100/Tumor volume on day 28 of vehicle group (mm^3)]−100 • % Regression=[Tumor volume on day 28 (mm^3)×100/Tumor volume on day 1(mm^3)]−100

T1 sequence (P04626 23-1255): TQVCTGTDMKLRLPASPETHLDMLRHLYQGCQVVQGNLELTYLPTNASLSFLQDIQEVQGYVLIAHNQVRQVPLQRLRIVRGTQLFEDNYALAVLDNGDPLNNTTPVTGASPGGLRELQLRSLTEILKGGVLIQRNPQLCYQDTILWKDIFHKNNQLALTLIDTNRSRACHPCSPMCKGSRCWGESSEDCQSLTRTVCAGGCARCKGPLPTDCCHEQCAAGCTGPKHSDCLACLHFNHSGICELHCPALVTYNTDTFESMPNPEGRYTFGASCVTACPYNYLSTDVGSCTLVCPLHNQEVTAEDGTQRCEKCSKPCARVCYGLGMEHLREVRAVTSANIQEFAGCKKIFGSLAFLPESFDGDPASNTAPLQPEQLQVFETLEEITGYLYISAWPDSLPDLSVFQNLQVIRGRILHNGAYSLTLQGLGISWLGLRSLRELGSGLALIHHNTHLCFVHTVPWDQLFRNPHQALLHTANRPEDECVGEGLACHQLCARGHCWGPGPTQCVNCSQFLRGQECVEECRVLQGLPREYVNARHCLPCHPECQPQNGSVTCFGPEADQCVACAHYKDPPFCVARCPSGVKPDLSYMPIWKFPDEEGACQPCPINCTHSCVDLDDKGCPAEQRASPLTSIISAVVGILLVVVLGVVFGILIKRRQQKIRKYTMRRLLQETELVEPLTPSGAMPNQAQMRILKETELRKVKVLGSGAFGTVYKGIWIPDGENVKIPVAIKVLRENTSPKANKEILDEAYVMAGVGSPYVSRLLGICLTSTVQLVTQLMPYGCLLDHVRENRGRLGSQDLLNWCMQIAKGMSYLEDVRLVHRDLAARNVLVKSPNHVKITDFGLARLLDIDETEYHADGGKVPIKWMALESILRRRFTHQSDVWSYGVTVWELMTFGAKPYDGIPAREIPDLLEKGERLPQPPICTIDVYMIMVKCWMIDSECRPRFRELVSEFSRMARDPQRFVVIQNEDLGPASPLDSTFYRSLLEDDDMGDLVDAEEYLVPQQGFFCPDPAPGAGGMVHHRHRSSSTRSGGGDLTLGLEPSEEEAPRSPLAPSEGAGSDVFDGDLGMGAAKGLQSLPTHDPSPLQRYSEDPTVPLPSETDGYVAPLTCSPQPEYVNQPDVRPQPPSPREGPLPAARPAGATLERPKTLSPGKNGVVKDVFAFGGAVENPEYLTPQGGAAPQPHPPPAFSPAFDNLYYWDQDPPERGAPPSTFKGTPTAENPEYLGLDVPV

COCC(=O)NC/C=C/c1ccc2ncnc(Nc3ccc(Oc4ccc(C)nc4)c(C)c3)c2c1 [Agent 182, E-2-Methoxy-N-(3-{4-[3-methyl-4-(6-methyl-pyridin-3-yloxy)-phenylamino]-quinazolin-6-yl}-allyl)-acetamide]
% Reduction of erbB2-autophosphorylation ([1]; Agent 182 25 mg/kg PO QD, 25 mg/kg): 16 ± 5 (N = 3) %
% Reduction of erbB2-autophosphorylation ([1]; Agent 182 25 mg/kg PO QD, listed as agent 182, 25 mg/kg): Approximately 16%
% Reduction of erbB2-autophosphorylation ([1]; Agent 182 50 mg/kg PO QD): 57 ± 5 (N = 4) %
% Growth inhibition ([2]; 28 days, Agent 182 50 mg/kg PO QD): 40%
Tumor volume Day 28 ([2]; Agent 182 25 mg/kg PO QD): 327 ± 45 mm^3
Tumor volume Day 28 ([2]; Agent 182 50 mg/kg PO QD): 246 ± 36 mm^3
Efficacy against BT-474 tumors which over-express erbB2 ([2]; background statement): efficacious
Cmax ([3]; female, athymic, whole blood, po, 25 mg/kg): 365 ng/mL
Cmax ([3]; female, athymic, whole blood, po, 50 mg/kg): 2440 ± 740 ng/mL
Cmax ([3]; in vivo, 25 mg/kg group, earlier observations): 417 to 967 ng/mL
Cave0-2 h of Agent 182 ([3]; whole blood, Agent 182 25 mg/kg PO QD): 186 ± 71 ng/mL
Cave0-2 h of Agent 182 ([3]; whole blood, Agent 182 50 mg/kg PO QD): 1050 ± 330 ng/mL
Average body weight Day 1 ([4]; Agent 182 25 mg/kg PO QD): (21) g
Average body weight Day 1 ([4]; Agent 182 50 mg/kg PO QD): (23) g
Average body weight Day 28 ([4]; Agent 182 25 mg/kg PO QD): (23) g
Average body weight Day 28 ([4]; Agent 182 50 mg/kg PO QD): (25) g

Reference: patent US20050101618A1, “Selective erbB2 inhibitor/anti-erbB antibody combinations in the treatment of cancer” (Pfizer Inc, priority 2003, published 2005)
